Test results published in US8815909B2, “Diaminocyclohexane compounds and uses thereof” (Bristol-Myers Squibb Company, priority 2011, dated 2014).

The compounds below were run against T1, human Y4 receptor (Homo sapiens, UniProt P50391) (assay: NPY4 cAMP HTRF Agonist Assay (inhibitory cAMP assay, Gi activation by Y4 agonism)). Conditions: TABLE 2, R2 is Phenyl-CN; read-out: hY4 CAMP EC50.
T1 construct: expressed in transfected cells
Type: cell-based
Procedure, shortened: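 Y4 agonism read as lowered forskolin-stimulated cAMP (HTRF, 1 h detection at room temperature). Stable human Y4 CHO clone, 5000 cells/well, incubated 30 min at room temperature with compounds plus forskolin and IBMX in PBS.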

T1 sequence (P50391 whole entry): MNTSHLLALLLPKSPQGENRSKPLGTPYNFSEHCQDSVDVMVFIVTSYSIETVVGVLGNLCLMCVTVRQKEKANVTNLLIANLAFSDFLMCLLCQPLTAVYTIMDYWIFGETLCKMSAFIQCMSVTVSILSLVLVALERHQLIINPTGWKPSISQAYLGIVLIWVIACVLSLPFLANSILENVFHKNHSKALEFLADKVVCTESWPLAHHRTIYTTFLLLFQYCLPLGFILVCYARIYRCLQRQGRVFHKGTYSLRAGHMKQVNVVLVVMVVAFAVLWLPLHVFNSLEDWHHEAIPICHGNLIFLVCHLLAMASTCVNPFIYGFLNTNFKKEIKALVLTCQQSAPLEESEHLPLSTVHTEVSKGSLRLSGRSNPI

EC50	Structure (SMILES)
70 nM	CC(=O)c1ccccc1-c1ccnc(N[C@@H]2CCCC[C@H]2N[C@H]2CCCN(c3ccc(C#N)cc3)C2)c1 [Example 253]
2 nM	C[C@]1(N[C@@H]2CCCC[C@H]2Nc2ncc(-c3cccc(C(N)=O)c3)o2)CCCN(c2ccc(C#N)cc2)C1 [Example 199]

The remaining lines, values behind:

Structure (SMILES)	EC50
N#Cc1ccc(N2CCC[C@H](N[C@@H]3CCCC[C@H]3Nc3ncc4cc(F)ccc4n3)C2)cc1 [Example 283]	308 nM
COc1ccc(-c2ccnc(N[C@@H]3CCCC[C@H]3N[C@H]3CCCN(c4ccc(C#N)cc4)C3)c2)cc1 [Example 219]	45 nM
N#Cc1ccc(N2CCC[C@H](N[C@@H]3CCCC[C@H]3Nc3cc(-c4ccccc4Cl)ccn3)C2)cc1 [Example 248]	557 nM
N#Cc1ccc(N2CCC[C@H](N[C@@H]3CCCC[C@H]3Nc3cc(-c4cccc(Cl)c4)ccn3)C2)cc1 [Example 250]	559 nM
CS(=O)(=O)c1cccc(-c2ccnc(N[C@@H]3CCCC[C@H]3N[C@H]3CCCN(c4ccc(C#N)cc4)C3)c2)c1 [Example 254]	381 nM

Same assay, conditions: TABLE 3, R2 is Phenyl-NO2; read-out: hY4 CAMP EC50

EC50	Structure (SMILES)
163 nM	N#Cc1cccc(-c2ccnc(N[C@@H]3CCCC[C@H]3N[C@H]3C[C@@H]4C[C@H]3N(c3ccc([N+](=O)[O-])cc3)C4)c2)c1 [Example 293]

Same assay, conditions: TABLE 4, R2 is Pyridinyl-CN; read-out: hY4 CAMP EC50

EC50	Structure (SMILES)
67 nM	CC(C)(O)c1cccc(-c2ccnc(N[C@@H]3CCCC[C@H]3NC3CCCN(c4ccc(C#N)nc4)C3)c2)c1 (stereo partly drawn) [Example 314]
392 nM	N#Cc1ccc(N2C[C@@H]3C[C@H](N[C@@H]4CCCC[C@H]4Nc4cc(-c5cccc(C(N)=O)c5)ccn4)[C@H]2C3)nc1 [Example 299]

Same assay, conditions: TABLE 5, R2 is Pyridinyl-CF3; read-out: hY4 CAMP EC50

EC50	Structure (SMILES)
17 nM	C[C@]1(N[C@@H]2CCCC[C@H]2Nc2cc(-c3cccc(C(N)=O)c3)ccn2)CCCN(c2ccc(C(F)(F)F)nc2)C1 [Example 323]
52 nM	O=C(O)c1cccc(-c2cnc(N[C@@H]3CCCC[C@H]3N[C@H]3CCCN(c4ccc(C(F)(F)F)nc4)C3)o2)c1 [Example 324]

Same assay, conditions: TABLE 7, R2 is Pyridinyl-oxadiazole-CH3; read-out: hY4 CAMP EC50

EC50	Structure (SMILES)
1 nM	COC(=O)Nc1cccc(-c2cnc(N[C@@H]3CCCC[C@H]3N[C@H]3CCCN(c4ccc(-c5noc(C)n5)nc4)C3)o2)c1 [Example 382]
9 nM	CNC(=O)c1cccc(-c2cnc(N[C@@H]3CCCC[C@H]3N[C@H]3CCCN(c4ccc(-c5noc(C)n5)nc4)C3)o2)c1 [Example 385]
606 nM	Cc1nc(-c2ccc(N3CCC[C@H](N[C@@H]4CCCC[C@H]4Nc4ncc(-c5cccc(C(=O)O)c5)o4)C3)cn2)no1 [Example 384]

Same assay, conditions: human Y4 receptor, cAMP; read-out: hY4 CAMP EC50

EC50	Structure (SMILES)
15 nM	N#Cc1cnc(N2C[C@@H]3C[C@H](N[C@@H]4CCCC[C@H]4Nc4ncc(-c5ccc(OC(F)(F)F)cc5)o4)[C@H]2C3)nc1 [Example 440]
28 nM	C[C@]1(N[C@@H]2CCCC[C@H]2Nc2cc(-c3cccc(C(N)=O)c3)ccn2)CCCN(c2ncc(C(F)(F)F)cn2)C1 [Example 400]
69 nM	Nc1cccc(-c2cnc(N[C@@H]3CCCC[C@H]3N[C@H]3CCCN(c4cnc(C(F)(F)F)nc4)C3)o2)c1 [Example 412]
9 nM	Cc1nc(-c2ccc(N3C[C@@H]4C[C@H](N[C@@H]5CCCC[C@H]5Nc5nccc(-c6ccccc6)n5)[C@H]3C4)cc2)no1 [Example 350]
107 nM	FC(F)(F)Oc1ccc(-c2cnc(N[C@@H]3CCCC[C@H]3N[C@H]3CCCN(c4ccc5ncnn5c4)C3)o2)cc1 [Example 482]
0.1 nM	COC(=O)Nc1cccc(-c2ccnc(N[C@@H]3CCCC[C@H]3N[C@H]3CCCN(c4ccc(-c5noc(C)n5)cc4)C3)c2)c1 [Example 339]
17 nM	Cc1nnc(-c2ccc(N3CCCC(N[C@@H]4CCCC[C@H]4Nc4cc(-c5cccc(OC(F)(F)F)c5)ccn4)C3)cc2)o1 (stereo partly drawn) [Example 358]
123 nM	Cc1nc(-c2ccc(N3CCC[C@H](N[C@@H]4CCCC[C@H]4Nc4cc(-c5cccc(OC(F)(F)F)c5)ccn4)C3)cc2)no1 [Example 341]
3 nM	CCOC(=O)Nc1cccc(-c2cnc(N[C@@H]3CCCC[C@H]3N[C@H]3CCCN(c4ccc(-c5noc(C)n5)cc4)C3)o2)c1 [Example 340]
4 nM	Cc1nc(-c2ccc(N3CCC[C@H](N[C@@H]4CCCC[C@H]4Nc4cc(-c5cccc(C(N)=O)c5)ccn4)C3)cn2)no1 [Example 378]

Second part, the compound before the results:

Structure (SMILES)	EC50
C[C@]1(N[C@@H]2CCCC[C@H]2Nc2cc(-c3cccc(C(N)=O)c3)ccn2)CCCN(c2ncc(C#N)cn2)C1 [Example 435]	400 nM
Cn1cnc(-c2ccc(N3CCC[C@H](N[C@@H]4CCCC[C@H]4Nc4cc(-c5cccc(O)c5)ccn4)C3)cc2)n1 [Example 456]	28 nM
COC(=O)Nc1cccc(-c2ccnc(N[C@@H]3CCCC[C@H]3N[C@H]3CCCN(c4ccc(-c5cncnc5)cc4)C3)c2)c1 [Example 515]	11 nM
CCc1nc(-c2ccc(N3CCC[C@H](N[C@@H]4CCCC[C@H]4Nc4ncc(-c5cccc(C(N)=O)c5)o4)C3)nc2)no1 [Example 448]	2 nM

Same assay, conditions: human Y4 stable CHO clonal cells, forskolin + IBMX; read-out: NPY4 cAMP HTRF Agonist Assay EC50

EC50	Structure (SMILES)
489 nM	Cc1ccn(-c2ccc(N3CCC[C@H](N[C@@H]4CCCC[C@H]4Nc4ncc(-c5ccc(OC(F)(F)F)cc5)o4)C3)cc2)n1 [Example 68, (1R,2R)—N1-((S)-1-(4-(3-Methyl-1H-pyrazol-1-yl)phenyl)piperidin-3-yl)-N2-(5-(4-(trifluoromethoxy)phenyl)oxazol-2-yl)cyclohexane-1,2-diamine bis-trifluoroacetate]
107 nM	N#Cc1cnc(N2CCC[C@H](N[C@@H]3CCCC[C@H]3Nc3ncc(-c4ccccc4)o3)C2)nc1 [Example 82, 2-((S)-3-((1R,2R)-2-(5-Phenyloxazol-2-ylamino)cyclohexylamino)piperidin-1-yl)pyrimidine-5-carbonitrile]
4 nM	O=[N+]([O-])c1ccc(N2CCC[C@H](N[C@@H]3CCCC[C@H]3Nc3ncc(-c4ccccc4F)o3)C2)cc1 [Example 9, (1R,2R)—N1-(5-(2-Fluorophenyl)oxazol-2-yl)-N2-((S)-1-(4-nitrophenyl)piperidin-3-yl)cyclohexane-1,2-diamine]
19 nM	N#Cc1ccc(N2CCC[C@H](N[C@@H]3CCCC[C@H]3Nc3cc(-c4ccc(O)cc4)ccn3)C2)cc1 [Example 45, 4-((S)-3-((1R,2R)-2-(4-(4-Hydroxyphenyl)pyridin-2-ylamino)cyclohexylamino)piperidin-1-yl)benzonitrile tris-trifluoroacetate]

The next lines start with the compound.

Structure (SMILES)	EC50
N#Cc1ccc(N2C[C@@H]3CC(N[C@@H]4CCCC[C@H]4Nc4ncc(-c5ccc(OC(F)(F)F)cc5)o4)[C@H]2C3)cc1 (stereo partly drawn) [Example 95, 4-((1R,4R)-6-((1R,2R)-2-(5-(4-(Trifluoromethoxy)phenyl)oxazol-2-ylamino)cyclohexylamino)-2-azabicyclo[2.2.1]heptan-2-yl)benzonitrile]	10 nM
FC(F)(F)Oc1ccc(-c2cnc(N[C@@H]3CCCC[C@H]3N[C@H]3CCCN(c4ccc(-n5cncn5)cc4)C3)o2)cc1 [Example 89, (1R,2R)—N1-((S)-1-(4-(1H-1,2,4-Triazol-1-yl)phenyl)piperidin-3-yl)-N2-(5-(4-(trifluoromethoxy)phenyl)oxazol-2-yl)cyclohexane-1,2-diamine bis-trifluoroacetate]	58 nM
O=[N+]([O-])c1ccc(N2CCC[C@H](N[C@@H]3CCCC[C@H]3Nc3ncc(-c4ccc(OC(F)F)cc4)o3)C2)cc1 [Example 13, (1R,2R)—N1-(5-(4-(Difluoromethoxy)phenyl)oxazol-2-yl)-N2-((S)-1-(4-nitrophenyl)piperidin-3-yl)cyclohexane-1,2-diamine]	3 nM
Cc1cc(OC(F)(F)F)ccc1-c1cnc(N[C@@H]2CCCC[C@H]2N[C@H]2CCCN(c3ccc([N+](=O)[O-])cc3)C2)o1 [Example 11, (1R,2R)—N1-(5-(2-Methyl-4-(trifluoromethoxy)phenyl)oxazol-2-yl)-N2-((S)-1-(4-nitrophenyl)piperidin-3-yl)cyclohexane-1,2-diamine]	49 nM
CC(C)(C)OC(=O)/C=C/c1ccnc(N[C@@H]2CCCC[C@H]2N[C@H]2CCCN(c3ccc(C#N)cc3)C2)c1 [Example 109, (E)-tert-butyl 3-(2-(((1R,2R)-2-(((S)-1-(4-cyanophenyl)piperidin-3-yl)amino)cyclohexyl)amino)pyridin-4-yl)acrylate]	119 nM

Same assay, conditions: second TABLE 1, R2 is Phenyl-CF3; read-out: hY4 CAMP EC50

EC50	Structure (SMILES)
546 nM	CC(C)(O)C#Cc1ccnc(N[C@@H]2CCCC[C@H]2N[C@H]2CCCN(c3ccc(C(F)(F)F)cc3)C2)c1 [Example 162]
8 nM	O=C1OCCN1c1cccc(-c2cnc(N[C@@H]3CCCC[C@H]3N[C@H]3CCCN(c4ccc(C(F)(F)F)cc4)C3)o2)c1 [Example 133]
29 nM	CCCNC(=O)c1cccc(-c2ccnc(N[C@@H]3CCCC[C@H]3N[C@H]3CCCN(c4ccc(C(F)(F)F)cc4)C3)c2)c1 [Example 139]
3 nM	COC(=O)Nc1cccc(-c2ccnc(N[C@@H]3CCCC[C@H]3N[C@H]3CCCN(c4ccc(C(F)(F)F)cc4)C3)c2)c1 [Example 132]

More lines, now with the values behind:

Structure (SMILES)	EC50
FC(F)(F)c1ccc(N2CCC[C@H](N[C@@H]3CCCC[C@H]3Nc3cc(-c4cccc(C5CCCN5)c4)ccn3)C2)cc1 (stereo partly drawn) [Example 183]	153 nM
NC(=O)c1cccc(-c2cnc(N[C@@H]3CCCC[C@H]3N[C@H]3C[C@@H]4C[C@H]3N(c3ccc(C(F)(F)F)cc3)C4)o2)c1 [Example 178]	2 nM
Oc1ccc(-c2ccnc(N[C@@H]3CCCC[C@H]3N[C@H]3CCCN(c4ccc(C(F)(F)F)cc4)C3)c2)cc1 [Example 135]	27 nM
OC1(c2cccc(-c3ccnc(N[C@@H]4CCCC[C@H]4N[C@H]4CCCN(c5ccc(C(F)(F)F)cc5)C4)c3)c2)CC1 [Example 151]	292 nM
O=C(O)c1cccc(-c2cnc(N[C@@H]3CCCC[C@H]3N[C@H]3CCCN(c4ccc(C(F)(F)F)cc4)C3)o2)c1 [Example 116]	886 nM
OCCCC#Cc1ccnc(N[C@@H]2CCCC[C@H]2N[C@H]2CCCN(c3ccc(C(F)(F)F)cc3)C2)c1 [Example 166]	17 nM
